The test system of data set [1] is metastatic melanoma. As to the kind of experiment: Phase IIA clinical trial: tumour response, survival, performance status. Also noted: key to Best response: PD: progressive disease; SD: stable disease (<25% increase overall diameter of any lesion; no new lesions, after at least 4 weeks); NA: not assessable. The data set is classed as in vivo, human. An excerpt:
There was no limit on the amount of prior therapy, but no prior chemotherapy or immunotherapy was permitted in the 4 weeks before study entry. Patients with CNS metastases were eligible. At least the first 14 patients entered were also required to have at least two lesions suitable for excision biopsy (skin, subcutaneous metastases). Written informed consent was obtained from all patients and the protocol was approved by the Human Research Ethics Committees of the participating institutions.
This fixed dose schedule was calculated from the Phase I study, in which higher single daily doses were associated with more GIT toxicity.
Patients were reviewed for safety and efficacy of midostaurin weekly for the first month, and then on a monthly basis, or more frequently where symptoms warranted. Disease sites were re-evaluated by clinical examination monthly or CT every 2 months, or more frequently if disease progression was suspected.
It was planned to recruit 14 patients with disease suitable for biopsy as the first cohort. […] If at least one response occurred, a further 13 patients (not necessarily with disease suited for biopsy) would be recruited. Response and toxicity were assessed using WHO criteria.

Data set [2] can be described thus: Tumour tissue concentrations by HPLC with fluorescence detection. Format: in vivo, human. The note with it: for Kp at 28 day / concentration at 28 day: human, oral, 10 subjects; for Kp at 28 day: tumour tissue / plasma, 75 mg three times a day, tumour tissue to plasma; for concentration at 28 day: 75 mg tid. The procedure:
Therefore, the tumour tissue was frozen and cut into as small as possible pieces with a scalpel. The pieces were weighed, added to 1 ml of water, vortexed and thereafter treated like plasma. The assay for plasma samples was validated with acceptable calibration curves, within-study variability and total recovery. […] Due to limited availability of tumour tissue, the within-study validation for tumour assay was not performed.

Where “and” joins values, the source holds several entries; their conditions need not be identical. Identical values can stand only once. Entries after “also recorded” stand apart in the source; their conditions may differ. Like-named read-outs stand apart in the source and are kept apart here.

`CO[C@@H]1[C@H](N(C)C(=O)c2ccccc2)C[C@H]2O[C@]1(C)n1c3ccccc3c3c4c(c5c6ccccc6n2c5c31)C(=O)NC4` [Midostaurin, N-benzoyl-staurosporine] returned a Median survival in data set [1] (17 patients, 75 mg p.o. t.i.d.) of 43 days. Further, in data set [1] (17 patients, 75 mg p.o. t.i.d.), the “Survival, range” value lay in the range of 8 to 113 days. The Tumour response entry in data set [1] (17 patients, midostaurin 75 mg p.o. t.i.d.) is on record as “No tumour responses were seen; also recorded: No patient obtained a tumour response”. The “Patients with no change of ECOG performance status” value in data set [1] (eight patients, on study) was 47%. For the same compound, in data set [1] (fourteen out of 17 patients, 75 mg p.o. t.i.d.), the “Patients with progressive disease” value is listed as 82%. In addition, the “Duration of stable disease (best response duration)” value in data set [1] (individual patients with stable disease, midostaurin 75 mg p.o. t.i.d.) was 50 days and 85 days. Also, in data set [1] (individual patients, midostaurin 75 mg p.o. t.i.d., WHO criteria), the Best response result was “PD and SD (2×)”. For the same compound, the “Patients with worsening of ECOG performance status” value in data set [1] (nine patients, on study) is recorded as 53%. Moreover, in data set [1] (two out of 17 patients, 75 mg p.o. t.i.d.), the “Patients with stable disease” value came out at 12%. The Kp at 28 day was 1.86 in data set [2] (read-out: Tissue/plasma ratios, maximum); 0.56 in data set [2] (read-out: Tissue/plasma ratios, mean); 0.29 in data set [2] (read-out: Tissue/plasma ratios, median); 0.02 in data set [2] (read-out: Tissue/plasma ratios, minimum). The concentration at 28 day in data set [2] (tumour tissue, tumour tissue, about 1 month of 75 mg tid, read-out: Tissue concentrations, maximum) was 4250 nM; in data set [2] (tumour tissue, tumour tissue, about 1 month of 75 mg tid, read-out: Tissue concentrations, mean), 1300 nM; in data set [2] (tumour tissue, tumour tissue, about 1 month of 75 mg tid, read-out: Tissue concentrations, median) it was 593 nM; in data set [2] (tumour tissue, tumour tissue, about 1 month of 75 mg tid, read-out: Tissue concentrations, minimum), 58 nM. In addition, in data set [2] (tumour tissue, individual subjects, about 1 month of 75 mg tid), the Tissue concentrations is 58 nM and 607 nM and 266 nM and 579 nM and 4142 nM and 550 nM and 1528 nM and 358 nM and 698 nM and 4246 nM.

The record behind these values is PMC2360547 (British Journal of Cancer, 2006).
